US8236761B2, “C-Met receptor regulation by angiotensin IV (AT4) receptor ligands” (Washington State University Research Foundation, priority 2006, dated 2012)
Non-standard residues stand in square brackets, D forms with d. No end group written: not given here. Nle = CCCC[C@H](N)C(=O)O

Tests used:
[1] = molecular target: c-Met (Homo sapiens, UniProt P08581); assay: Tyrosine kinase receptor protein array in HUVECs; type: cell-based; design: endogenous in cells; host or cells: HUVEC; conditions: HUVECs treated for 5 minutes
Protocol: Screening of a ligand for its ability to inhibit c-Met receptor phosphorylation was tested by tyrosine kinase receptor protein array. Briefly, human umbilical vein endothelial cells (HUVECs) grown to confluence were treated for 5 minutes with COMPOUND 2 (SEQ ID NO:43). Cells were then lysed and total protein collected.

[2] = tested on: MDCK cells; assay: HGF-induced MDCK cell scattering (coverslip assay); type: cell-based, canine
Protocol: FIG. 8A: Confluent MDCK cells on coverslips were treated with HGF (110 pM), or HGF (110 pM)+Norleual (100 pM) for 48 hours. Digital images of top, bottom, left, and right sectors were acquired and the scattering of cells In each digital image was scored in blinded fashion and normalized to control scores. The difference between HGF and HGF+Norleual groups was significant (*p=0.0245, n=3). Error bars indicate±SEM. FIG. 8B: MDCK cells were plated on 6 mm diameter coverslips in DMEM 10% FBS and grown to 100% confluency. The coverslips were then transferred to fresh 6 well plates and the cells were serum-deprived for 24 hours to synchronize the cells in the same growth state. Thereafter, the 20 ng/ml of HGF alone and in the presence of 10^−10 M Norleual in a 1% FBS DMEM was added to the cells. […] This ring was photographed and loaded on to NIH image J. Using NIH image J, the pixel count was determined for each ring. […]
Scattering assay. […] Scattering was scored in blinded fashion by comparison to a set of calibration scattering images by two investigators. […]
To explore the physiological significance of the angiotensin-like factor Norleual's ability to depress c-Met signaling, Norleual's effect on HGF induced cell scattering of Madin-Darby canine kidney (MDCK) cells was assessed with the coverslip assay (Miao et al., 2003 J. Cell Biol. 162: 1281-1292). […]

[3] = tested on: +SA murine mammary cancer cells; assay: Angiogenesis-related gene microarray of +SA murine mammary tumors; type: in vivo, Balb/c mice; conditions: 28 days intraperitoneal osmotic pump, 1 mg/kg/day
Protocol: Angiotensin-like factor Norleual (COMPOUND 2) was tested for its ability to modulate angiogenic genes in murine mammary tumors. Briefly, Balb/c mice grafted with +SA murine mammary cancer cells were treated with Compound 2. After 28 days of intraperitoneal administration via an osmotic pump (at a dose of 1 mg/kg/day), primary tumors were harvested and RNA was collected. Transcriptional activities of 96 angiogenesis-related genes were assessed using gene microarrays.

[4] = tested on: urokinase plasminogen activator (uPA); assay: c-Met/HGF urokinase plasminogen activator (uPA) induction in MDCK cells; type: cell-based, canine; conditions: HGF 10 ng/ml, Norleual 10^−10 M and 10^−12 M, 48 hours
Protocol: Thereafter, 10 ng/ml of HGF alone and with the indicated concentrations of Norleual in a 1% FBS DMEM were added to the cells. The cells were cultured under these conditions for four days. On the fourth day, the treatment media was aspirated and replaced with 5 mg/ml of MTT reagent in 0.1 M glycine buffer (Invitrogen). The MTT reagent was incubated with the cells for four hours at 37° C. before adding DMSO to solubilize the cells and record the MTT absorbance on a plate reader. The controls were treated as background and subtracted from all of the treatments to determine the increase in proliferation due solely to HGF treatment. Differences between the treatments were determined using one-way ANOVA with Bonferroni's post-hoc analysis (Prism statistical analysis software). * indicate p<0.05 vs. HGF treatment. N=6, mean+/−SEM. […] Madin-Darby Canine Kidney (MDCK) cells were plated in the wells of a 96 well plate in 100 μl of complete Dulbecco's Modified Eagle's Medium (DMEM). The cells were serum starved for 24 hours to induce quiescence. […] Absorbance of the cleaved substrate was quantitated on a Biotek Synergy HT 2 plate reader according to the manufacturer's instructions. […] The data was analyzed with Prism® (GraphPad, San Diego, Calif.) statistical analysis software. * indicates p<0.01 vs. HGF treatment by Tukey's post-hoc analysis. […]

Sequence of c-Met (P08581 25-1390): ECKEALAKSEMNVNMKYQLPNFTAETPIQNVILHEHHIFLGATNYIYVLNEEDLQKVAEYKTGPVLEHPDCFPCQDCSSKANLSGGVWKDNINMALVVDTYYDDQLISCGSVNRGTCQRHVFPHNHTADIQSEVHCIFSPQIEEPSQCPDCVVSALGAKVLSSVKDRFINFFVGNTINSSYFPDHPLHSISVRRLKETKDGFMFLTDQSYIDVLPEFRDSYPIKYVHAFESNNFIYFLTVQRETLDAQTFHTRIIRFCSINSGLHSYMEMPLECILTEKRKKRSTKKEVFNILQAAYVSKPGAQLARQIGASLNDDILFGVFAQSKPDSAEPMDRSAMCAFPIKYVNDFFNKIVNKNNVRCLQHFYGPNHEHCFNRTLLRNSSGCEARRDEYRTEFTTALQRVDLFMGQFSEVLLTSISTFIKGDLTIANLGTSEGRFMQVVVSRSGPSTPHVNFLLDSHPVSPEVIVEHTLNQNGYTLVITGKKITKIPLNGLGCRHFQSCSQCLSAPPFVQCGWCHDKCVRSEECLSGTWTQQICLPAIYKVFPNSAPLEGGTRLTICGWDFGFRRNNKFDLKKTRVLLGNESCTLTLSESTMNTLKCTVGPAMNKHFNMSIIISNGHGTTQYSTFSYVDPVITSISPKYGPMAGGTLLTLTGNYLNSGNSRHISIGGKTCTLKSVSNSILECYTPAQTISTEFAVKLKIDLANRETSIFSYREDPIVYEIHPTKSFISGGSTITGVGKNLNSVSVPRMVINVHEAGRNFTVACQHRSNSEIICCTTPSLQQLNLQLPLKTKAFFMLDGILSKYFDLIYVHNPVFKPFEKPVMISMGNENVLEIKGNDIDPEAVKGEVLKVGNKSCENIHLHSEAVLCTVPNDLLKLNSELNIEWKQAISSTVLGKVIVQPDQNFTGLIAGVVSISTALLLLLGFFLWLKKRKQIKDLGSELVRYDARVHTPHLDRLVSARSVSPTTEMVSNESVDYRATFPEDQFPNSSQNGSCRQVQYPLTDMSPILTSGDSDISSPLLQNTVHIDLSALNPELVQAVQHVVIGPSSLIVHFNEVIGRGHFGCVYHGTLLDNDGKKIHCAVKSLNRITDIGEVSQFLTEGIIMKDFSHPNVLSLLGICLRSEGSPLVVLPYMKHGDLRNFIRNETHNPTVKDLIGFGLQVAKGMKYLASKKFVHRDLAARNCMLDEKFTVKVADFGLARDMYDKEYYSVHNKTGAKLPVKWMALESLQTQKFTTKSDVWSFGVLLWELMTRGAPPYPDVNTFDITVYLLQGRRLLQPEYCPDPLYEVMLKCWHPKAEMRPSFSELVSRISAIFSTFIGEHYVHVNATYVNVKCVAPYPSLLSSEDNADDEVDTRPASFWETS

- c-Met phosphorylation in receptor protein array [1]: inhibited
Substance: Nle-Tyr-Leu-ψ-His-Pro-Phe ([Nle]YLHPF; also: reduced peptide bond psi(CH2NH2) between Leu and His) [Norleual]
- HGF-induced MDCK cell scattering ([2]; HGF 110 pM + Norleual 100 pM, 48 hours, FIG. 8A): inhibited
- Hepatocyte growth factor-dependent cell scattering ([2]; HGF 20 ng/ml, COMPOUND 2 10^−10M, FIG. 7): inhibited
- Change in gene expression versus control: Adamts 1, CD36, Connective tissue growth factor, PECAM 1, Cxcl 4, restin, Ccl 2, TNF-α, VEGF-α, VEGF-β [3]: at least five-fold
- c-Met/HGF uPA induction [4]: attenuation
